Data published in paper PMC6892409, “Phenotypic proteomic profiling identifies a landscape of targets for circadian clock–modulating compounds” (Life Science Alliance, 2019).
Read-outs that look alike come from different tables or passages of the source.

What was measured:
Per2-dLuc U2OS cells = experiment: Circadian luminescence period assay, Per2-dLuc U2OS cells; assay type: cell-based, human; settings: for Effect of kinase inhibitor on circadian period length: threefold serial dilution starting at 100 μM; for Circadian period length: 8 μM, mean ± SEM, control 24.2 ± […]
Protocol: Per2-dLuc U2OS osteosarcoma and Bmal1-dLuc U2OS osteosarcoma reporter cell lines were gifts from Dr Andrew Liu, University of Memphis, USA ([Liu et al, 2008]). […] The cells were cultured at 37°C, 5% CO2 in a standard humidified incubator.

U2OS cells = experiment: TMT quantitative proteomics of compound-treated U2OS cells; assay type: cell-based, human; settings: 10 μM, 48 h, vs DMSO
Synechococcus elongatus = experiment: Luminescence rhythm period assay in cyanobacteria; settings: 3, 8, 16 and 32 μM
Protocol: The D730nm was maintained between 0.27 and 0.45 by dilution with fresh medium.
Circadian period–altering compounds (dissolved in DMSO, final 0.5% DMSO) were then added in the air medium to reach the different desired concentrations. […] Images were generated from integrated photon counts over 25 min every 30 min using Metamorph software (Molecular Devices). […] Exported images were composed into image stacks and were quantified in a time series using a custom script in NIH ImageJ software, applying the “Multi Measure” plugin.

MST4/STK26 = molecular target: T1, MST4/STK26 (Homo sapiens, UniProt Q9P289); experiment: Radiometric HotSpot kinase assay; assay type: biochemical; settings: read-out: Enzyme activity (%) MST4/STK26
T1 construct: purchased Reaction Biology
Protocol: (§1) In brief, specific kinase/substrate pairs were mixed in a buffer containing 20 mM Hepes (pH 7.5), 10 mM MgCl2, 1 mM EGTA, 0.02% Brij35, 0.02 mg/ml BSA, 0.1 mM Na3VO4, 2 mM DTT, and 1% DMSO. […] After a 20-min incubation, ATP (cat. no. A7699; Sigma-Aldrich) and [γ-^33P] ATP (cat. no. NEG602H001MC; PerkinElmer) were added at a final total concentration of […].

TNIK = molecular target: T2, TNIK (Homo sapiens, UniProt Q9UKE5); experiment: Radiometric HotSpot kinase assay; assay type: biochemical; settings: for remaining activity at 100 µM: read-out: Enzyme activity (%) TNIK
T2 construct: purchased Reaction Biology
Protocol: as §1

CAMK1d = molecular target: T3, CAMK1d (Homo sapiens, UniProt Q8IU85); experiment: Radiometric HotSpot kinase assay; assay type: biochemical; settings: read-out: Enzyme activity (%) CAMK1d
T3 construct: purchased Reaction Biology
Protocol: as §1

ERK1/MAPK3 = molecular target: T4, ERK1/MAPK3 (Homo sapiens, UniProt P27361); experiment: Radiometric HotSpot kinase assay; assay type: biochemical; settings: read-out: Enzyme activity (%) ERK1/MAPK3
T4 construct: purchased Reaction Biology
Protocol: as §1

CDK7 = molecular target: T5, CDK7 (Homo sapiens, UniProt P50613); experiment: Radiometric HotSpot kinase assay; assay type: biochemical; settings: read-out: Enzyme activity (%) CDK7
T5 construct: purchased Reaction Biology
Protocol: as §1

CK2a = molecular target: T6, CK2a (Homo sapiens, UniProt P68400); experiment: Radiometric HotSpot kinase assay; assay type: biochemical; settings: read-out: Enzyme activity (%) CK2a
T6 construct: purchased Reaction Biology
Protocol: as §1

ERK2/MAPK1 = molecular target: T7, ERK2/MAPK1 (Homo sapiens, UniProt P28482); experiment: Radiometric HotSpot kinase assay; assay type: biochemical; settings: read-out: Enzyme activity (%) ERK2/MAPK1
T7 construct: purchased Reaction Biology
Protocol: as §1

CDK2 = molecular target: T8, CDK2 (Homo sapiens, UniProt P24941); experiment: Radiometric HotSpot kinase assay; assay type: biochemical; settings: n = 3, remaining activity vs DMSO, read-out: Enzyme activity (%) CDK2
T8 construct: purchased Reaction Biology
Protocol: as §1

CAMK2d = molecular target: T9, CAMK2d (Homo sapiens, UniProt Q13557); experiment: Radiometric HotSpot kinase assay; assay type: biochemical; settings: read-out: Enzyme activity (%) CAMK2d
T9 construct: purchased Reaction Biology
Protocol: as §1

CK1d = molecular target: T10, CK1d (Homo sapiens, UniProt P48730); experiment: Radiometric HotSpot kinase assay; assay type: biochemical; settings: n = 3, remaining activity vs DMSO, read-out: Enzyme activity (%) CK1d
T10 construct: purchased Reaction Biology
Protocol: as §1

[1] = 100 μM, n = 3, remaining activity vs DMSO

T2 sequence (Q9UKE5 whole entry): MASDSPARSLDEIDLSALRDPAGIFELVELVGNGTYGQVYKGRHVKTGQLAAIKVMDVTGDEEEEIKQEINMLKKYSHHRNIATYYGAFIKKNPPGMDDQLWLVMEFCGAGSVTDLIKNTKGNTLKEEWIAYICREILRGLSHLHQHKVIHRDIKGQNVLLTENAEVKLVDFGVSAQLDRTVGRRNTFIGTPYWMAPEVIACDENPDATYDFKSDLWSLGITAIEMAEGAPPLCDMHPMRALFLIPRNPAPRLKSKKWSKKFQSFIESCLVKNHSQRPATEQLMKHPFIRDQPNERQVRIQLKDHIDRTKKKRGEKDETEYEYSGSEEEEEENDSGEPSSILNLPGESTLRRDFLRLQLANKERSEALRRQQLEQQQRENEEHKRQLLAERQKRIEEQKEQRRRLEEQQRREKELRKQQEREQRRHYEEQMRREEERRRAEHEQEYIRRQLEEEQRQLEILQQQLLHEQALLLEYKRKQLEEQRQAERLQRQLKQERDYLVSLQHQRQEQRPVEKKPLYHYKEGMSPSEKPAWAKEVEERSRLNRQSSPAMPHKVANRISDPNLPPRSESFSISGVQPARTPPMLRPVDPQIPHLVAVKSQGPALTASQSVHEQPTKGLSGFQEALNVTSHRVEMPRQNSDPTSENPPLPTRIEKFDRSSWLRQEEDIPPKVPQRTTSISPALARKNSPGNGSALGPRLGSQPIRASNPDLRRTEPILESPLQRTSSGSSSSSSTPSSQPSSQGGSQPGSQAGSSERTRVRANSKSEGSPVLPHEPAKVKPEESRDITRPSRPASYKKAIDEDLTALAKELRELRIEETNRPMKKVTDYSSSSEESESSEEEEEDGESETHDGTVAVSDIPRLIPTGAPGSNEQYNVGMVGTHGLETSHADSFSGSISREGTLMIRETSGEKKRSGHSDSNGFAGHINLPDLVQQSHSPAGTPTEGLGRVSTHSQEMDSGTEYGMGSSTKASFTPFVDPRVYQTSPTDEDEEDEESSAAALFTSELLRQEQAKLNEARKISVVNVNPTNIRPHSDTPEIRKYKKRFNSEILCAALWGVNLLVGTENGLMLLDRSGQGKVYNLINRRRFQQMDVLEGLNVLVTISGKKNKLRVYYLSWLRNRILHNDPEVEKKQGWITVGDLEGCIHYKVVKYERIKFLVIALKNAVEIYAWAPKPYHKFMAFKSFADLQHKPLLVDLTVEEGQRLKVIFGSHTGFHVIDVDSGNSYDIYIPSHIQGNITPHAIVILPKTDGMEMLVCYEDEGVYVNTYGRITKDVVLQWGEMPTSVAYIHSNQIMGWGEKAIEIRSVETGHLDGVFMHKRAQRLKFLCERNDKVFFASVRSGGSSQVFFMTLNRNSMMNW
T7 sequence (P28482 whole entry): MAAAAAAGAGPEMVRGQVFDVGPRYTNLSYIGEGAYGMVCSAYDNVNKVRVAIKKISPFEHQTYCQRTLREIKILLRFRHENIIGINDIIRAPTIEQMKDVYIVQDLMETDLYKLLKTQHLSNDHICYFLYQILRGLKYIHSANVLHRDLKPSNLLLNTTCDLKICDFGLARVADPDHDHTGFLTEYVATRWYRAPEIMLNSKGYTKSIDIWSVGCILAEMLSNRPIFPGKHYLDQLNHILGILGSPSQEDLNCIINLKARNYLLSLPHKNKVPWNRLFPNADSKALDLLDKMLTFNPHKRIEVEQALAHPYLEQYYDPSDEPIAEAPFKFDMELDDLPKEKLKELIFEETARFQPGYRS
T6 sequence (P68400 whole entry): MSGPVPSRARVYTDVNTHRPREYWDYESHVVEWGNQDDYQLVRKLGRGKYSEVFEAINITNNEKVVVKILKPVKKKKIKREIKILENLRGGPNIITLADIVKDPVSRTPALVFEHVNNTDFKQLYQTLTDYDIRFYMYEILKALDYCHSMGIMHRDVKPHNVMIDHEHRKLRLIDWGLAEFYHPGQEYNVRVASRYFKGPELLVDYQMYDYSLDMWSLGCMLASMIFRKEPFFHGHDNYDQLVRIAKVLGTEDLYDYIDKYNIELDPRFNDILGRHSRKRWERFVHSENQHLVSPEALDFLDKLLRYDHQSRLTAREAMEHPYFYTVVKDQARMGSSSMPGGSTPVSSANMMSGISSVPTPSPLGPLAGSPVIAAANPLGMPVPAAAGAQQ
T5 sequence (P50613 whole entry): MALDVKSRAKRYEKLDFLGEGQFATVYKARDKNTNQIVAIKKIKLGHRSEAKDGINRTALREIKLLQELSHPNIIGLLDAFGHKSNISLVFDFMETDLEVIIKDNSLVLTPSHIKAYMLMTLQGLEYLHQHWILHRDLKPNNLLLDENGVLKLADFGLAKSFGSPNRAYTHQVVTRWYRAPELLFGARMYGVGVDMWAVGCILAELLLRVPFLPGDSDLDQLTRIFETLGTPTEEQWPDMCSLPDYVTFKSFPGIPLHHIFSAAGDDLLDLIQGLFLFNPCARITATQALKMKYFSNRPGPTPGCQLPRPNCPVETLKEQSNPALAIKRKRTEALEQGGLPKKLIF
T5 sequence (P51946 whole entry partner): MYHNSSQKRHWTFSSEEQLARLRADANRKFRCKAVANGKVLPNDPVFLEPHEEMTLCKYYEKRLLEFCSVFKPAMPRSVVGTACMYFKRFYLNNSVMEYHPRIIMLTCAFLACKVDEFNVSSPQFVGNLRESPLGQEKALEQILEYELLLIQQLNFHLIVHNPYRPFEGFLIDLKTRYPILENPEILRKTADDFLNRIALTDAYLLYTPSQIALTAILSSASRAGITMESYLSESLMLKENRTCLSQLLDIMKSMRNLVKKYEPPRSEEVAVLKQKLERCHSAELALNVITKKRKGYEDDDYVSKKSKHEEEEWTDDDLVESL
T5 sequence (P51948 whole entry partner): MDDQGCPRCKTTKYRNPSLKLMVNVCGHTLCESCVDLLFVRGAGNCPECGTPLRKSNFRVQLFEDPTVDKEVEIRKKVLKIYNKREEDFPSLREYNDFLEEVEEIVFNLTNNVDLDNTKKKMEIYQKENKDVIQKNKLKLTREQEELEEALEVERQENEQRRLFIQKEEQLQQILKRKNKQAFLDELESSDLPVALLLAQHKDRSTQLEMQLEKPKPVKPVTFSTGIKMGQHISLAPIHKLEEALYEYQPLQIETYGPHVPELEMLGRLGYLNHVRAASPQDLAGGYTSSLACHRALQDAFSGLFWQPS
T3 sequence (Q8IU85 whole entry): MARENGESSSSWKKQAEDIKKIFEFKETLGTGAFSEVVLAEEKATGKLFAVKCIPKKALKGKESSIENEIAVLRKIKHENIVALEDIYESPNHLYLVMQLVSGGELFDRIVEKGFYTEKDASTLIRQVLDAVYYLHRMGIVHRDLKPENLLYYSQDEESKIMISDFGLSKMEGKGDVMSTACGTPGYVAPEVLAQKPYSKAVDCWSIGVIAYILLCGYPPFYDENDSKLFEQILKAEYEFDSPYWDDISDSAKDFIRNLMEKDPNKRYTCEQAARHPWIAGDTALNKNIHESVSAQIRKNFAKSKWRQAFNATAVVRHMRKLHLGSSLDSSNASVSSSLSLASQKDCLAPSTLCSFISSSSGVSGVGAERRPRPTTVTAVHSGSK
T9 sequence (Q13557 whole entry): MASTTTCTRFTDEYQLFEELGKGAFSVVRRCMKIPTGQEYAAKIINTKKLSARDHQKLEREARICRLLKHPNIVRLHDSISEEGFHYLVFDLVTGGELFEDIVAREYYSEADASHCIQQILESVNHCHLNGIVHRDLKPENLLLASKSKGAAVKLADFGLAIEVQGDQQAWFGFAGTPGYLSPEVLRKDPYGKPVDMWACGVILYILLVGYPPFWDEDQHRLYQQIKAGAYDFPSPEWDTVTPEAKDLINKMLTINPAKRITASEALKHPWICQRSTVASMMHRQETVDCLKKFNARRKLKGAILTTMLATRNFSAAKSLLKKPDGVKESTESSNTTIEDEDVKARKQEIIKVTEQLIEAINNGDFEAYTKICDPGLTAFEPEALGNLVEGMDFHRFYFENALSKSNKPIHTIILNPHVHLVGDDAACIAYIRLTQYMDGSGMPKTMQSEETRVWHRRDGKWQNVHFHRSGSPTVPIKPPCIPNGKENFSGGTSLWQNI
T4 sequence (P27361 whole entry): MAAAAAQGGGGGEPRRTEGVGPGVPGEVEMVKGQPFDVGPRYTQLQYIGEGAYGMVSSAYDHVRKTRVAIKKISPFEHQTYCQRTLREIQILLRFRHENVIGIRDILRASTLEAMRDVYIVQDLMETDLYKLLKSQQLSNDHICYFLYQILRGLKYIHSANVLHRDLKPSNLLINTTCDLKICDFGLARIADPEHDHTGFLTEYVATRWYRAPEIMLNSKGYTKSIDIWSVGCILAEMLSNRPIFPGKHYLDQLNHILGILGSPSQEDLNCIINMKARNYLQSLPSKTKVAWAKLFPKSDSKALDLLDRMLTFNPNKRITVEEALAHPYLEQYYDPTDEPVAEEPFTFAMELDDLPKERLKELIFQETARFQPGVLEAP
T1 sequence (Q9P289 whole entry): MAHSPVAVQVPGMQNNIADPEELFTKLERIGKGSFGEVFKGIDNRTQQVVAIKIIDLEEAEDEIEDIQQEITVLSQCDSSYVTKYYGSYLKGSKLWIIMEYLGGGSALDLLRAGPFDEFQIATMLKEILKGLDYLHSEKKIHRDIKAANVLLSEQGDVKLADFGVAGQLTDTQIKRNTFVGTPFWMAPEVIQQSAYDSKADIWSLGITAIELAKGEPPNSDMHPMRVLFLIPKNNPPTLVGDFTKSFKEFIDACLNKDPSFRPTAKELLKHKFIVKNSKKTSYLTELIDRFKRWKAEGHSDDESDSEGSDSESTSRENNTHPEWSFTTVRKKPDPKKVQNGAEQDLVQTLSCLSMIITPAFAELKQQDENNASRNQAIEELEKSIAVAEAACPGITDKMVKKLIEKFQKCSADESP

NC(=O)c1ccc(-c2nc(-c3ccc4c(c3)OCCO4)c(-c3ccccn3)[nH]2)cc1 [D4476]
Effect of kinase inhibitor on circadian period length (Per2-dLuc U2OS cells): substantial dose-dependent increase in the period length

Cc1cc2sc(NC(=O)Cc3ccccc3)nc2cc1Cl [LH846]
Effect of kinase inhibitor on circadian period length (Per2-dLuc U2OS cells): substantial dose-dependent increase in the period length

CC(C)n1cnc2c(NCc3cccc(C(F)(F)F)c3)ncnc21 [Longdaysin, longdaysin]
Average Fold-change Acot9 Q9Y305 (U2OS cells): 0.86 | Average Fold-change Atp5f1e P56381 (U2OS cells): 0.88 | Average Fold-change Bak1 Q16611 (U2OS cells): 1.18 | Average Fold-change Cdk7 P50613 (U2OS cells): 0.85 | Average Fold-change Col1a1 P02452 (U2OS cells): 0.83 | Average Fold-change Csnk2a2 P19784 (U2OS cells): 0.81 | Average Fold-change Csnk1d P48730 (U2OS cells): 0.75 | Average Fold-change Ctsb P07858 (U2OS cells): 1.19 | Average Fold-change Cyb5b O43169 (U2OS cells): 1.15 | Average Fold-change Emsy Q7Z589 (U2OS cells): 0.86 | Average Fold-change Gusb P08236 (U2OS cells): 1.17 | Average Fold-change H1f0 P07305 (U2OS cells): 1.31 | Average Fold-change Hist1h4a P62805 (U2OS cells): 1.36 | Average Fold-change Hist2h3a Q71DI3 (U2OS cells): 1.28 | Average Fold-change Krt9 P35527 (U2OS cells): 0.78 | Average Fold-change Mapk1 P28482 (U2OS cells): 0.75 | Average Fold-change Mapk14 Q16539 (U2OS cells): 0.78 | Average Fold-change Nemf O60524 (U2OS cells): 0.80 | Average Fold-change Npc2 P61916 (U2OS cells): 1.20 | Average Fold-change Nucks1 Q9H1E3 (U2OS cells): 1.22 | Average Fold-change Ppig Q13427 (U2OS cells): 0.89 | Average Fold-change Rpl7a P62424 (U2OS cells): 0.85 | Average Fold-change Rpl14 P50914 (U2OS cells): 0.80 | Average Fold-change Rpl18 Q07020 (U2OS cells): 0.85 | Average Fold-change Rpl28 P46779 (U2OS cells): 0.86 | Average Fold-change Rpl37 P61927 (U2OS cells): 0.87 | Average Fold-change Rpl37a P61513 (U2OS cells): 0.88 | Average Fold-change Smarcd2 Q92925 (U2OS cells): 0.88 | Average Fold-change Spryd4 Q8WW59 (U2OS cells): 0.78 | Average Fold-change Tecr Q9NZ01 (U2OS cells): 0.46 | Average Fold-change Terf2 Q15554 (U2OS cells): 1.15 | Circadian period length (Per2-dLuc U2OS cells): 35.1 ± 1.29 h | Effect on period length in cyanobacteria (Synechococcus elongatus): do not affect period length

CC(C)[C@H](CO)Nc1nc(Nc2cccc(Cl)c2)c2ncn(C(C)C)c2n1 [Purvalanol A, purvalanol A]
Average Fold-change Acsf2 Q96CM8 (U2OS cells): 1.16 | Average Fold-change Alcam Q13740 (U2OS cells): 1.20 | Average Fold-change Arhgap29 Q52LW3 (U2OS cells): 1.19 | Average Fold-change Cav1 Q03135 (U2OS cells): 1.17 | Average Fold-change Cavin1 Q6NZI2 (U2OS cells): 1.22 | Average Fold-change Cavin2 O95810 (U2OS cells): 1.29 | Average Fold-change Cd47 Q08722 (U2OS cells): 1.17 | Average Fold-change Cdk6 Q00534 (U2OS cells): 0.86 | Average Fold-change Cdk7 P50613 (U2OS cells): 0.74 | Average Fold-change Cdkn1a P38936 (U2OS cells): 1.52 | Average Fold-change Cdkn1b P46527 (U2OS cells): 1.37 | Average Fold-change Cers5 Q8N5B7 (U2OS cells): 1.14 | Average Fold-change Cks1b P61024 (U2OS cells): 0.85 | Average Fold-change Cks2 P33552 (U2OS cells): 0.83 | Average Fold-change Col1a1 P02452 (U2OS cells): 0.80 | Average Fold-change Ctsb P07858 (U2OS cells): 1.29 | Average Fold-change Dpysl4 O14531 (U2OS cells): 1.15 | Average Fold-change Fas P25445 (U2OS cells): 1.18 | Average Fold-change Gls O94925 (U2OS cells): 0.80 | Average Fold-change Gys1 P13807 (U2OS cells): 1.22 | Average Fold-change H1f0 P07305 (U2OS cells): 1.20 | Average Fold-change Hist1h4a P62805 (U2OS cells): 1.50 | Average Fold-change Hist2h3a Q71DI3 (U2OS cells): 1.29 | Average Fold-change Hmga1 P17096 (U2OS cells): 1.16 | Average Fold-change Hmgcs1 Q01581 (U2OS cells): 0.77 | Average Fold-change Hmgn2 P05204 (U2OS cells): 1.15 | Average Fold-change Irf2bpl Q9H1B7 (U2OS cells): 1.15 | Average Fold-change Itga2 P17301 (U2OS cells): 1.20 | Average Fold-change Itga3 P26006 (U2OS cells): 1.17 | Average Fold-change Naga P17050 (U2OS cells): 1.19 | Average Fold-change Nbn O60934 (U2OS cells): 0.83 | Average Fold-change Npc2 P61916 (U2OS cells): 1.33 | Average Fold-change Pak1 Q13153 (U2OS cells): 1.19 | Average Fold-change Ppp1cc P36873 (U2OS cells): 0.85 | Average Fold-change Psap P07602 (U2OS cells): 1.20 | Average Fold-change Rpl14 P50914 (U2OS cells): 0.75 | Average Fold-change S100a2 P29034 (U2OS cells): 1.30 | Average Fold-change Selenoh Q8IZQ5 (U2OS cells): 1.14 | Average Fold-change Slc5a3 P53794 (U2OS cells): 1.16 | Average Fold-change Slc20a1 Q8WUM9 (U2OS cells): 1.20 | Average Fold-change Tada3 O75528 (U2OS cells): 1.28 | Average Fold-change Uhrf1 Q96T88 (U2OS cells): 0.82 | remaining activity at 100 µM (MST4/STK26; [1]): 32.7% | remaining activity at 100 µM (TNIK; [1]): 2.3% | IC50 (TNIK; 10-dose, threefold serial dilution starting at 100 μM): < 500 nM | remaining activity at 100 µM (CAMK1d; [1]): 49.2% | remaining activity at 100 µM (ERK1/MAPK3; [1]): 83.6% | remaining activity at 100 µM (CDK7): 3.8% | remaining activity at 100 µM (CK2a; [1]): 76.9% | remaining activity at 100 µM (ERK2/MAPK1; [1]): 66.5% | remaining activity at 100 µM (CDK2): 0.7% | remaining activity at 100 µM (CAMK2d; [1]): 53.2% | remaining activity at 100 µM (CK1d): 21.7% | Circadian period length (Per2-dLuc U2OS cells): 25.2 ± 0.04 h | Effect on period length in cyanobacteria (Synechococcus elongatus): do not affect period length

CC[C@H](CO)Nc1nc(NCc2ccccc2)c2ncn(C(C)C)c2n1 [Roscovitine, roscovitine]
remaining activity at 100 µM (MST4/STK26): 40.1% | remaining activity at 100 µM (TNIK): 7.8% | remaining activity at 100 µM (CAMK1d): 56.7% | remaining activity at 100 µM (ERK1/MAPK3): 59.1% | remaining activity at 100 µM (CDK7): 4% | remaining activity at 100 µM (CK2a): 89.4% | remaining activity at 100 µM (ERK2/MAPK1): 50.6% | remaining activity at 100 µM (CAMK2d): 38.9% | Circadian period length (Per2-dLuc U2OS cells): 28.9 ± 0.08 h | Effect on period length in cyanobacteria (Synechococcus elongatus): do not affect period length

COc1ccc2c(c1)/C(=C/c1cnc[nH]1)C(=O)N2 [SU9516]
Effect of kinase inhibitor on circadian period length (Per2-dLuc U2OS cells): substantial dose-dependent increase in the period length
